Like-named read-outs stand apart in the source and are kept apart here.
Type: physicochemical
Details: for drug dissolved in water: 500 mg flucytosine added to 10 mL water
Procedure: The powder and granule pharmaceutical compositions of the present invention dissolve or suspend when added to water quickly. This pharmaceutical composition is therefore termed as “quick water-dispersing”. The term “quick” herein is defined as less than 2 to 3 minutes when shaken gently. In other words, when the granules are added to water, and gently mixed, a suspension is formed in less than 2 to 3 minutes. The “quick water-dispersing” property was achieved by selecting a correct particle size of suspending agent(s) which is the novelty of this invention. The suspension is achieved by simple mixing of powder in water—without use of complex instruments which are available in the home-environment to patients. […] After reaching the gastro-intestinal tract, the remaining drug dissolves. The pharmaceutical compositions according to the present invention provide for an immediate release of the Flucytosine from the dosage form.
USP II apparatus were used and UV-visible spectrometer was used for quantification of Flucytosine from dissolution. […] When we combine other antifungal agents in this formulation, the dissolved fraction of flucytosine will change.

drug dissolved in water: about 150 mg
drug dissolved in water (listed as flucytosine): 150 mg
water needed to dissolve the drug (dose of 500 mg flucytosine): 33.3 mL
SMILES: Nc1nc(=O)[nH]cc1F [Flucytosine, 5-fluorocytosine]
